Assay results reported in ChEMBL document CHEMBL5338793, “Discovery of Pyrimidinediamine Derivatives as Potent Methuosis Inducers for the Treatment of Triple-Negative Breast Cancer” (J Med Chem, 2023).

Columns and labels:
HCC1806 [1] = test: Antiproliferative activity against human HCC1806 cells assessed as inhibition of cell proliferation at 1 uM incubated for 24 hrs by SRB assay relative to control; format: functional
HCC1806 [2] = test: Antiproliferative activity against human HCC1806 cells assessed as inhibition of cell proliferation incubated for 24 hrs by SRB assay; format: functional, cell-based; details: HCC1806, 24 h
HCC1806 [3] = test: Induction of morphological changes in human HCC1806 cells assessed as rate of intracellular vacuolization at 1 uM incubated for 24 hrs by microscopic analysis relative to control; format: functional
HCC1806 [4] = test: Antiproliferative activity against human HCC1806 cells assessed as inhibition of cell proliferation at 2 uM incubated for 24 hrs by SRB assay relative to control; format: functional
184B5 = test: Cytotoxicity against human 184B5 cells assessed as reduction in cell viability at 2 uM incubated for 24 hrs by SRB assay; format: toxicity, cell-based; details: 184b5, 24 h

SMILES	inhibition at 1 µM (HCC1806 [1])	IC50 (HCC1806 [2])	Activity (HCC1806 [3])	inhibition at 2 µM (HCC1806 [4])	Activity (184B5)
COc1cc(Nc2nc(N3CCNCC3)ncc2Br)ccc1NC(=O)c1cccc(Br)n1	99.3%	420 nM	65%	38.1%	Non-Toxic
COc1cnc(N2CCNCC2)nc1Nc1ccc(NC(=O)c2ccccn2)cc1C(F)(F)F	4.52%	–	–	–	–
COc1cnc(N2CCNCC2)nc1Nc1ccc(NC(=O)c2cccc(Cl)n2)cc1C(F)(F)F	94.1%	370 nM	36.83%	52.9%	Non-Toxic
COc1cnc(N2CCNCC2)nc1Nc1ccc(NC(=O)c2ccco2)cc1C(F)(F)F	1.86%	–	–	–	–
COc1cnc(N2CCNCC2)nc1Nc1ccc(NC(=O)c2cccc(Br)n2)cc1	17.4%	–	–	–	–
COc1cc(Nc2cc(N3CCNCC3)ncn2)ccc1NC(=O)c1cccc(Br)n1	11.5%	–	–	–	–
COc1cnc(N2CCNCC2)nc1Nc1ccc(NC(=O)c2cccs2)cc1C(F)(F)F	4.93%	–	–	–	–
COc1cnc(N2CCNCC2)nc1Nc1ccc(NC(=O)c2cccc(Br)n2)cc1C	3.6%	–	–	–	–
COc1cnc(N2CCNCC2)nc1Nc1ccc(NC(=O)c2cc(Br)ccn2)cc1C(F)(F)F	12.3%	–	–	–	–
COc1nc(Nc2ccc(NC(=O)c3cccc(Br)n3)c(OC)c2)nc(N2CCNCC2)n1	4.27%	–	–	–	–
COc1cnc(N2CCNCC2)nc1Nc1cc(C)c(NC(=O)c2cccc(Br)n2)cc1C	98.9%	870 nM	42.33%	6.93%	Toxic
COc1cnc(N2CCNCC2)nc1Nc1ccc(NC(=O)c2cccc(F)n2)cc1C(F)(F)F	4.48%	–	–	–	–
COc1cnc(N2CCNCC2)nc1Nc1ccc(NC(=O)c2ccncn2)cc1C(F)(F)F	6.52%	–	–	–	–
COc1cc(Nc2nc(N3CCC(OC)CC3)ncc2OC)ccc1NC(=O)c1cccc(Br)n1	7.54%	–	–	–	–
COc1cnc(N2CCNCC2)nc1Nc1ccc(NC(=O)c2ccc3ccccc3n2)cc1C(F)(F)F	13.3%	–	–	–	–
COc1cc(Nc2ncnc(N3CCNCC3)n2)ccc1NC(=O)c1cccc(Br)n1	10.8%	–	–	–	–
COc1cnc(N2CCNCC2)nc1Nc1ccc(NC(=O)c2cccc(Br)n2)cn1	9.96%	–	–	–	–

SMILES	inhibition at 1 µM (HCC1806 [1])	IC50 (HCC1806 [2])	Activity (HCC1806 [3])	inhibition at 2 µM (HCC1806 [4])	Activity (184B5)
COc1cnc(N2CCNCC2)nc1Nc1ccc(NC(=O)c2cccc(Br)n2)cc1C(F)(F)F	99%	580 nM	41.5%	71.7%	Non-Toxic
COc1cnc(N2CCNCC2)nc1Nc1ccc(NC(=O)c2cccnc2)cc1C(F)(F)F	4.54%	–	–	–	–
COc1cnc(N2CCNCC2)nc1Nc1ccc(NC(=O)c2cccc(Br)c2)cc1C(F)(F)F	8.87%	–	–	–	–
COc1cc(Nc2cc(N3CCNCC3)nc(SC)n2)ccc1NC(=O)c1cccc(Br)n1	11.1%	–	–	–	–
COc1cnc(N2CCNCC2)nc1Nc1ccc(NC(=O)c2cccc(Br)n2)cc1C#N	99%	890 nM	39.5%	12.6%	Toxic
COc1cc(Nc2nc(N3C[C@@H](C)O[C@@H](C)C3)ncc2OC)ccc1NC(=O)c1cccc(Br)n1	8.34%	–	–	–	–
COc1cnc(N2CCNCC2)nc1Nc1ccc(NC(=O)c2cccc(Br)n2)c(C)c1	23.3%	–	–	–	–
COc1cc(Nc2ccnc(N3CCNCC3)n2)ccc1NC(=O)c1cccc(Br)n1	10.6%	–	–	–	–
COc1cnc(N2CCNCC2)nc1Nc1ccc(NC(=O)c2ncccc2Br)cc1C(F)(F)F	6.13%	–	–	–	–
COc1cc(Nc2nc(N3CCNCC3)ncc2OC)ccc1NC(=O)c1cccc(Br)n1	99.3%	770 nM	26.5%	59.9%	Non-Toxic
COc1cc(Nc2nc(N3CCOCC3)ncc2OC)ccc1NC(=O)c1cccc(Br)n1	1.41%	–	–	–	–
COc1cnc(N2CCNCC2)nc1Nc1ccc(NC(=O)c2cccc(Br)n2)cc1OC(F)(F)F	84.8%	–	–	–	–
COc1cc(NC(=O)c2cccc(Br)n2)ccc1Nc1nc(N2CCNCC2)ncc1OC	97.4%	970 nM	30.17%	10.4%	Toxic
COc1cnc(N2CCNCC2)nc1Nc1ccc(NC(=O)c2ccncc2)cc1C(F)(F)F	9.77%	–	–	–	–
COc1cc(Nc2nc(N3CCNCC3)ncc2Cl)ccc1NC(=O)c1cccc(Br)n1	99.2%	590 nM	42.33%	10.7%	Toxic
COc1cnc(N2CCNCC2)nc1Nc1ccc(NC(=O)Cc2cccs2)cc1C(F)(F)F	6.92%	–	–	–	–
COc1cnc(N2CCNCC2)nc1Nc1ccc(NC(=O)c2cccc(C)n2)cc1C(F)(F)F	11.2%	–	–	–	–
